We go through one substance from patent US20040241166A1, “Use of inhibitors of ikk-beta and method for discovery of said inhibitors” (priority 2001, published 2004).

For one experiment, the system named is IKK complex. The experiment is described as follows: Immunoprecipitation and kinase assay of IKK complex from stimulated HUVEC (GST-IκB-α phosphorylation). It is filed as cell-based, human. The method, then: Cells were incubated as indicated and cytosol extracts were made. Immunoprecipitation (IP) with antikinase antibodies as indicated was followed by a kinase assay using the substrate GST.IκB-α in the presence of ^32P-ATP. A time-dependent phosphorylation of the substrate is shown in each case after stimulation of HUVEC with blood platelets (PLT; 2×10^8/ml) (FIG. 6A), IL-1β (100 pg/ml) (FIG. 6B) or TNF (1.67 ng/ml) (FIG. 6C). A representative experiment is shown for each case (n=3). FIG. 6D: the kinase assays were scanned and analysed densitometrically.
Cytosol extracts were subjected to immunoprecipitation (IP) (7) in TNT buffer containing 1 mM dithiothreitol, 0.5 μM 4-(2-aminoethyl)-benzenesulfonyl fluoride (AEBSF) and 0.75 μg/ml each of leupeptin, antipain, aprotinin, pepstatin A and chymostatin (Sigma). […] After washing three times with TNT and kinase buffer each time (20 mM HEPES, pH 8.0; 10 mM MgCl2, 100 μM Na3VO4; 20 mM β-glycerophosphate; 50 mM NaCl; 2 mM dithiothreitol; 0.5 μM AEBSF; 0.75 μg/ml each of leupeptin, antipain, aprotinin, pepstatin A, chymostatin), the precipitated proteins were analysed by a kinase assay. […] Proteins were analysed with PAGE and visualised by means of autoradiography. […]

The subject of a further experiment is IκB-α and IκB-ε. The experiment is described as follows: Western blot of IκB-α/IκB-ε proteolysis in stimulated HUVEC. It is filed as cell-based, human. The method, then: FIG. 5A: nuclear extracts from HUVEC stimulated with blood platelets (PLT; 2×10^8/ml) were examined by EMSA for NF-κB or Sp-1 binding, which is shown in brackets. FIG. 5B: cytosol extracts from cells stimulated with blood platelets were analysed by means of western blots. The proteins IκB-α, IκB-ε, IKK-α and IKK-β are indicated by arrow heads. α-Actin was used as a loading control. FIG. 5C: cytosol extracts from cells stimulated with IL-β (100 pg/ml) were examined by means of western blots. FIG. 5D: cells were incubated with TNF (1.67 ng/ml) and cytosol extracts were examined by means of western blots. The top arrow indicates the phosphorylated forms of IκB-α or IκB-ε. A representative blot is shown for all cases (n=3).
Cytosol extracts were isolated, and electrophoresis and blotting were carried out as described in the prior art (6, 7). After transfer, the membranes were incubated with antibodies to IκB-α (Santa Cruz Biotechnology, Heidelberg), IκB-ε (Prof. N. Rice, NIH, Frederick, Md.), IKK-α, IKK-β (Santa Cruz Biotechnology) or α-actin (Sigma). The proteins were visualised on X-ray film using a western blot chemiluminescence reagent (NEN Life Science Products). Protein sizes were confirmed by means of molecular weight standards (Amersham Pharmacia Biotech, Braunschweig, Bio-Rad, Munich). […]
For orientation: A western blot detects proteins with antibodies after separation by electrophoresis.

“IL-1β: cytokine used as stimulus of HUVEC, 100 pg/ml”: in the experiment with IKK complex, the “time for which IKK activation is maintained” value was “at least 90 minutes” and the “time of IKK activation peak” value came to 45 min. Besides, in the experiment on IκB-α and IκB-ε, the “beginning of IκB-α degradation after incubation” value is 15 min and the “time of significant IκB-ε proteolysis” value came to 60 min.
